“Also recorded” adds a separate entry of the source. One block for each compound: values may come before it.
Tests used:
[1] = test system: MOG35-55-induced EAE; experiment: EAE mouse model of MS, clinical paralysis score; assay type: in vivo, female C57BL/6 mice; details: EAE mice, oral daily from onset of signs, TM5484 5 mg/kg/d, fingolimod 0.5 mg/kg, 6α-methylprednisolone 5 mg/kg
Experimental: (§1) All animal experiments conformed to the National Health Guide for the Care and Use of Laboratory Animals and were approved by the Animal Committee at Tohoku University. Studies were performed on 11-week-old female C57BL/6 mice (n = 8–10, each group) and 10-week-old Lewis rats (n = 6–8, each group), obtained from SJC, Japan SLC (Hamamatsu, Shizuoka, Japan). Animals were housed under a 12h light-dark cycle and given regular chow, MF (Oriental Yeast Co., Ltd.).
Experimental autoimmune encephalomyelitis (EAE) was induced in mice as described previously. Briefly, on day 0, 200 microgramme of myelin oligodendrocyte glycoprotein^35–55 (MOG^35–55) peptide was injected s.c, twice, in the lower and upper back of the mice, in an equal volume of complete Freund’s adjuvant (Hooke Laboratories, Inc.). Next, 200 ng of pertussis toxin (Hooke Laboratories, Inc.) dissolved in PBS was applied i.p. On day 1, another 200 ng of pertussis toxin was administered. For rats, 200 microgramme of myelin basic protein^69-88 (MBP^69-88) was injected (Hooke Laboratories, Inc.) twice, in the lower back on day 0. Animals were scored for motor paralysis on a daily basis. Disease severity was assessed using a scale ranging from 0 to 5 (Hooke Laboratories, Inc.): 0, normal; 1, limp tail; 1.5, Limp tail and hind leg inhibition; 2, Limp tail and weakness of hind legs.; 2.5, Limp tail and dragging of hind legs; 3, Limp tail and complete paralysis of hind legs; 3.5, Limp tail and complete paralysis of hind legs and Hind legs are together on one side of body; 4, Limp tail, complete hind leg and partial front leg paralysis; 4.5, Complete hind and partial front leg paralysis, no movement around the cage; 5, Mouse is spontaneously rolling in the cage. Mice were typically observed for 28 days, during which they will remain chronically paralyzed.

[2] = in vitro; details: rat
Experimental: (§2) This BBB model was reconstructed by the culture of both primary rat brain micro vascular endothelial cells and rat brain pericytes separated by a macroporous Millicell membrane (24 wells, pore size: 3.0 μm, Millipore, Bedford, MA, USA). Briefly, we pre-incubated the BBB kits at 37 °C in 5% CO2 conditions for 4–5 days, in order to strongly reconstruct the barrier integrity and tight-junctions. To evaluate the barrier integrity and confirm the functionality of the tight-junctions, trans-endothelial electrical resistance (TEER) was measured at day 5-post incubation. Assays were carried out using TEER values in the range of 150-to 300-Ω cm^2 [11]. Once the tight junctions reach a TEER of 300-Ω cm^2, 0.9 mL PBS-based assay medium was added to blank 24-well culture plates. Prior to incubation, selected compounds were diluted in DMSO 100%. The compounds suspended in 0.2 mL assay medium were fortified into the apical side and incubated for 30 min. Next, the medium from both the apical and the basolateral sides were collected and further analyzed by liquid chromatography–mass spectrometry.

[3] = test system: in vitro model of BBB (primary rat brain micro vascular endothelial cells and rat brain pericytes); experiment: In vitro BBB penetration assay (BBB Kit RBT-24H); details: in vitro BBB model, apical to basolateral, 30 min, n = 3
Experimental: as §2

[4] = test system: MOG35-55-induced EAE, motor coordination; experiment: Foot print analysis in EAE mice; assay type: in vivo, female C57BL/6 mice
Experimental: Briefly, to obtain footprints, the hind- and forefeet of the mice were coated with black non-toxic paint. The floor of the open field box was covered with white paper. Each mouse was placed in a corner of the open field and allowed to walk across the paper, leaving a track of footprints. If a mouse didn’t walk forward, the task was considered a failure. For each step parameter, three values were measured from each run, excluding footprints made at the beginning and end of the run where the animal was initiating and finishing movement respectively. The mean value of each set of three values was used for analysis.

[5] = test system: gene expression in spinal cord and spleen; experiment: qRT-PCR gene expression in spinal cord and spleen of EAE mice; assay type: in vivo, female C57BL/6 mice
Experimental: Spinal cord was harvested from mice and snap frozen in liquid nitrogen (n = 6–7, each group). Total RNA was extracted from spinal cord and spleen using ISOGEN (Nippon Gene). qRT-PCR analysis was performed as described previously. Briefly, qRT-PCR was performed on a LightCycler rapid thermal cycler system using a LightCycler 480 SYBR Green I Master (Roche Applied Science) according to the manufacturer's instructions. Data were analyzed by using the comparative Ct method as means of relative quantification, normalized to an endogenous reference (b-actin, Actb). The sequences of the primers are described below: […]

[6] = test system: spinal cord (lumbar segments); experiment: Histology of spinal cord of EAE mice; assay type: in vivo, female C57BL/6 mice
From the text: Mice were perfused in the heart with saline 0.9% followed by neutral-buffered formalin 10% (n = 3-4/group). Slides from different sections of the spinal cord were immersed and fixed overnight in 10% neutral-buffered formalin. Next, samples were transfered and immersed in a 10, 20 and 30% sucrose solution for consecutive nights. Sections were embedded in O.C.T compounds (Sakura Finetek, Japan) for the subsequent immunostaining study. Four sections of the spinal cord from each group were examined. Since the clinical manifestations are typically initiated as limp tail and hind-limb paralysis in this model, we focused on lumbar spinal segments. Frozen specimens were then incubated overnight at room temperature and stained with Cd11b for macrophage infiltration (Abcam), myelin basic protein (MBP) for demyelination, neurofilament non-phosphorylated (SMI-32) for axonal damage, collagen IV for extracellular matrix depositions (Abcam) and fibrinogen (Funakoshi, Japan). Incubation for 2 hs at room temperature in corresponding biotinylated goat secondary antibody was performed. For immunofluorescence, the sections were incubated overnight at room temperature using primary antibody Iba-1 for microglia activation (Wako Chemicals). After wash in PBS, the sections were then incubated in corresponding fluorescent goat secondary antibody (Wako Chemicals). For Cd11b, the number of positive macrophage was quantified as the total cells per selected area. The area of demyelination was calculated as the percentage of negative staining for MBP per selected area. As for axonal damage and collagen IV deposition, the positive staining per selected area was analyzed and calculated as the percentage per total area. For Quantification analysis was assessed by ImageJ TM software (version 1.440, National Institute of Health, Bethesda, MD, USA).

[7] = test system: MBP69-88-induced EAE; experiment: EAE rat model of MS, clinical paralysis score; assay type: in vivo; details: EAE Lewis rats, from onset of signs, dpi 15; TM5484 5 mg/kg/d, fingolimod 0.5 mg/kg
Experimental: as §1
Experimental autoimmune encephalomyelitis (EAE) was induced in mice as described previously. […] Animals were scored for motor paralysis on a daily basis. Disease severity was assessed using a scale ranging from 0 to 5 (Hooke Laboratories, Inc.): 0, normal; 1, limp tail; 1.5, Limp tail and hind leg inhibition; 2, Limp tail and weakness of hind legs.; 2.5, Limp tail and dragging of hind legs; 3, Limp tail and complete paralysis of hind legs; 3.5, Limp tail and complete paralysis of hind legs and Hind legs are together on one side of body; 4, Limp tail, complete hind leg and partial front leg paralysis; 4.5, Complete hind and partial front leg paralysis, no movement around the cage; 5, Mouse is spontaneously rolling in the cage. […]

[8] = In vitro BBB penetration assay (BBB Kit RBT-24H); details: rat
Experimental: as §2

SMILES: C[C@H]1C[C@@H]2[C@H]([C@@H](O)C[C@@]3(C)[C@H]2CC[C@]3(O)C(=O)CO)[C@@]2(C)C=CC(=O)C=C12 [6α-methylprednisolone]
motor paralysis score [1]: ameliorated the motor paralysis
motor paralysis score ([1]; listed as 6-α methylprednisone): attenuated the paralysis score to the level observed with TM5484

Papp at 30 min [2]: 31.3 ×10⁻⁶ cm/s
SMILES: CC(C)NCC(O)COc1cccc2ccccc12 (stereo not shown) [Propanolol]

apparent permeability coefficient (Papp) [3]: 32.1 x 10^–6 cm/s
SMILES: O=C(COCC(=O)Nc1ccc(Cl)cc1C(=O)O)Nc1cccc(-c2ccoc2)c1 [TM5441]

Papp at 30 min [8]: 56 ×10⁻⁶ cm/s
SMILES: CCCCCCCCc1ccc(CCC(N)(CO)CO)cc1 [fingolimod]
motor paralysis score [1]: ameliorated the motor paralysis; also recorded: attenuated the paralysis score to the level observed with TM5484
stride length ([4]; dpi 28, TM5484 5 mg/kg/d, fingolimod 0.5 mg/kg): 5.48 cm
stride length (in words) ([4]; oral administration): significantly preserved the stride length
BDNF expression ([5]; spinal cord): did not restore BDNF expression
ChAT expression ([5]; spinal cord): up-regulated ChAT expression
PAI-1 mRNA expression ([5]; spinal cord): no effects
gene expression of inflammatory markers (TNF-α, IL-6, Ccl2, Cd68) ([5]; spinal cord and spleen, dpi 28, treatment from onset of paralysis): able to modulate these inflammatory effects
BDNF expression ([5]; spinal cord, listed as Fingolimod): no effects
expression of IL-10 ([5]; spleen): upregulated
fibrin (fibrinogen) deposition [6]: no changes were observed
collagen IV deposition ([6]; dpi 28): able to ameliorate collagen IV deposition
demyelination (anti-MBP staining) ([6]; dpi 28): reduced
macrophage accumulation and microglia activation (Cd11b and Iba-1 staining) ([6]; dpi 28, TM5484 5 mg/kg/d, fingolimod 0.5 mg/kg/d): significantly reduced; also recorded: ameliorated
paralysis score at the peak of the paralysis [7]: reduced the paralysis score to a level similar to TM5484
